Data set [1] relates to NHBE-ht/LT/ras cells. The data set can be described thus: In vitro growth inhibition, transformed NHBE cells. It is filed as cell-based, human. The protocol:
The K562, HL-60, MDA-MB231, and melanoma (CRL-11174) human cancer cell lines were purchased from ATCC (American Tissue Type Culture Collection, Manassas, Va., United States of America). HeLa, A549, Lewis Lung Carcinoma, MDA-MB231, and melanoma cells were grown in Dulbecco's Modified Eagle Medium (DMEM) (Hyclone, Logan, Utah, United States of America) supplemented with 10% fetal bovine serum (Hyclone, Logan, Utah, United States of America) and 50 μg/mL gentamicin sulfate (Invitrogen, Carlsbad, Calif., United States of America). The HL-60, K562, and Jurkat cell lines were grown in RPMI-1640 medium (Hyclone, Logan, Utah, United States of America) supplemented with 10% fetal bovine serum and 50 μg/mL gentamicin sulfate. The primary Normal Human Bronchial Epithelial (NHBE) cells and cells that were immortalized with human telomerase (ht) and large T antigen (LT) and transformed with mutated ras (ht/LT/ras cells) were cultured in Bronchial Epithelial Cell Basal Growth Medium (Cambrex, Walkersville, Md., United States of America) supplemented with 52 μg/mL bovine pituitary extract, 0.5 μg/mL hydrocortisone, […], 0.5 μg/mL epinephrine, 10 μg/mL transferrin, 5 μg/mL insulin, 0.1 ng/mL retinoic acid, 6.5 ng/mL triiodothyronine, 50 μg/mL gentamycin, and 50 ng/mL amphotericin-B (SingleQuots, Cambrex, Walkersville, Md., United States of America). All cell lines were maintained under 5% CO2 at 37° C.
(§1) All cell lines were plated at 1×10^5 cells/well in the appropriate medium. For suspension cells, increasing concentrations of 1 were added immediately to the medium, whereas, compound 1 treatment was initiated the following day for adherent cell lines. For dose-dependent studies, compound 1 was added in increasing concentrations for 36 hours. For time-dependent studies, 10 μM of compound 1 was added at time 0, 4, 8, 16, 24, or 36 hours. […]
(§2) Cells were collected 48 hours post-treatment, and cell number and viability were determined by trypan blue exclusion. […]

The subject of data set [2] is A549 lung carcinoma cells. As to the kind of experiment: In vitro growth inhibition, A549. The data set is classed as cell-based. Particulars: human A549. On the procedure:
(§3) The K562, HL-60, MDA-MB231, and melanoma (CRL-11174) human cancer cell lines were purchased from ATCC (American Tissue Type Culture Collection, Manassas, Va., United States of America). HeLa, A549, Lewis Lung Carcinoma, MDA-MB231, and melanoma cells were grown in Dulbecco's Modified Eagle Medium (DMEM) (Hyclone, Logan, Utah, United States of America) supplemented with 10% fetal bovine serum (Hyclone, Logan, Utah, United States of America) and 50 μg/mL gentamicin sulfate (Invitrogen, Carlsbad, Calif., United States of America). The HL-60, K562, and Jurkat cell lines were grown in RPMI-1640 medium (Hyclone, Logan, Utah, United States of America) supplemented with 10% fetal bovine serum and 50 μg/mL gentamicin sulfate. […]
as §2

For data set [3], the system named is HeLa cervical cancer cells. As to the kind of experiment: In vitro growth inhibition, HeLa. It is filed as cell-based. The conditions noted are these: Homo sapiens. On the procedure: as §3, §2
Data set [4] deals with Jurkat cells expressing unaltered PFKFB3 levels. As to the kind of experiment: Growth inhibition of control Jurkat cells (empty vector, doxycycline). The data set is classed as cell-based. The conditions noted are these: Homo sapiens, 48 hours. On the procedure:
FIG. 6D is a bar graph showing the anti-proliferative effects of 3PO in Jurkat cells engineered to over-express PFKFB3 through doxycylin treatment utilizing the Tet-on system (+PFKFB3, striped bars). Twenty-four hours prior to 3PO treatment, 1 μg/mL of doxycyclin is incubated with Jurkat cells containing a PFKFB3-expressing vector in order to induce PFKFB3 protein levels. Control cells (−PFKFB3, solid bars) containing an empty vector were similarly treated with doxycyclin and served as background PFKFB3 expression. Both cell types were subsequently incubated with increasing concentrations of 3PO (1, 3, 10, or 33 μM) or vehicle (V), and viable cells were analyzed after 48 hours. The bars represent the mean±STD of triplicate values from a representative experiment.
as §1, §2

Data set [5] concerns Lewis Lung Carcinoma xenografts. The data set can be described thus: F2,6BP in Lewis lung carcinoma tumor xenografts. The data set is classed as in vivo, mice. The conditions noted are these: 0.07 mg/g i.p., four hours post-injection. On the procedure: C57Bl/6 female mice (20 g) were injected subcutaneously with 1×10^6 Lewis lung carcinoma cells. When the xenografts were measured to have a mass of between 150 and 180 mg, the mice were split into two groups. One group was injected i.p. with 0.07 mg/g of compound 1. The other group was used as a control and injected i.p. with 50 μL DMSO. Four hours post-injection, tumors were removed and homogenized in equal volumes of 0.1 M and 0.05 M NaOH. F2,6BP assays were performed as previously described. See Van Shaftingen et al., Eur. J. Biochem, 129, 191-195 (1982). […] F2,6BP concentration in the compound 1-treated mouse xenografts was 8.5±1.7 pmol/mg, while in the control mouse xenografts' F2,6BP concentration was 13.1±1.9 pmol/mg.

Data set [6] can be described thus: Echocardiographic examination of cardiac function. The data set is classed as in vivo. The conditions noted are these: compound-treated mice, 0.07 mg/g i.p. On the procedure: A difference in cardiac ^18F-2-DG uptake was also observed between the compound 1-treated and control group mice. Echocardiograms were performed as described in Dawn et al., Proc. Natl. Acad. Aci., U.S.A., 102, 3766-3771 (2005). […] Overall, it appears that 1 targets PFK2 activity in vivo resulting in a reduced glycolytic phenotype.

One may read the IC50 as the concentration at which inhibition is half-maximal. Read a low IC50 as higher potency. On to `O=C(/C=C/c1cccnc1)c1ccncc1` [Compound 1, 3-(3-pyridinyl)-1-(4-pyridinyl)-2-propen-1-one], for which the IC50 stood at 1.5 µM in data set [1] (Homo sapiens, NHBE, 48 h); 24 µM in data set [2]; 24 µM in data set [3]; 8.9 µM in data set [4]. Besides, in data set [1] (transformed NHBE cells), the “concentration at which treatment was completely cytotoxic” value is given as “approximately 10 μM”. Moreover, in data set [1] (transformed NHBE cells), the “concentration at which treatment was cytostatic” value is given as “below 1 μM”. Also, the “F2,6BP concentration in tumor xenografts” value in data set [5] is 8.5 ± 1.7 pmol/mg. In addition, in data set [6], the ejection fraction is reported as 71%±6%.

(Values after patent US8557823B2, “Family of PFKFB3 inhibitors with anti-neoplastic activities” (Advanced Cancer Therapeutics, LLC, priority 2007, dated 2013).)
